Measured values published in patent publication US12384776B2, “Compounds and uses thereof” (Foghorn Therapeutics Inc., priority 2019, dated 2025).

Target: Nanoluciferase-BRD9 fusion protein (3×FLAG-NLuc-BRD9) in SYO-1 cells (Homo sapiens (Human), UniProt Q9H8M2)
Assay: SYO1 BRD9 NanoLuc degradation assay
Format: cell-based
Conditions: SYO-1 cells expressing 3×FLAG-NLuc-BRD9, 6 hours incubation, top dose 1 μM
Outline: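 Stable SYO-1 line expressing 3×FLAG-NLuc-BRD9, treated with 10-point 3-fold dilutions (top 1 μM final) for 6 hours. Nanoluciferase luminescence read with Nano-Glo reagent. % inhibition relative to DMSO (high control) and 1 μM reference BRD9 degrader (low control).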

Sequence of Nanoluciferase-BRD9 fusion protein (3×FLAG-NLuc-BRD9) in SYO-1 cells (Q9H8M2 whole entry, the tested form may be a part): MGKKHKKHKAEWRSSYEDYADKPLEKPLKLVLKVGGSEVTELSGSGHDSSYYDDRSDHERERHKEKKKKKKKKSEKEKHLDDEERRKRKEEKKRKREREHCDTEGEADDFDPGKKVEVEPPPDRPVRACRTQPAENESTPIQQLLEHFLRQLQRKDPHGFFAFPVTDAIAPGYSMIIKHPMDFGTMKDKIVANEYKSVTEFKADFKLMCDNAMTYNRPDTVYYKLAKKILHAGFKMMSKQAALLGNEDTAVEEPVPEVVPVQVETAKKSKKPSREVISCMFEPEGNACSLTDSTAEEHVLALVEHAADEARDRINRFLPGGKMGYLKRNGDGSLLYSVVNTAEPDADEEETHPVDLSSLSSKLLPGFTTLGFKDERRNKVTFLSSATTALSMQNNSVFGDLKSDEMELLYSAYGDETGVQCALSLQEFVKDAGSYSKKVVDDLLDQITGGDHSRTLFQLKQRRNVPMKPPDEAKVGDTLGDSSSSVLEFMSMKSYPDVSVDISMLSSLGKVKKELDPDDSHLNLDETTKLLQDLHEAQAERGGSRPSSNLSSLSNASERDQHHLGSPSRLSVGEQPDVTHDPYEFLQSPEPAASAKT

IC50 | SMILES
10 to 100 nM | COc1cc(-c2cn(C)c(=O)c3c2CCN(C(=O)NCCN2CCC(OC4CCN(c5ccc6c(c5)C(=O)N(C5CCC(=O)NC5=O)C6=O)CC4)CC2)C3)cc(OC)c1CN(C)C (stereo not shown) [Compound D186]
10 to 100 nM | COc1cc(-c2cn(C)c(=O)c3c2CCN(C(=O)NCCN2CCC4C(C2)CN4c2ccc4c(c2)C(=O)N(C2CCC(=O)NC2=O)C4=O)C3)cc(OC)c1CN(C)C (stereo not shown) [Compound D187]
100 to 1000 nM | COc1cc(-c2cn(C)c(=O)c3c2CCN(C(=O)NCCN2CCC4CCN(c5ccc6c(c5)C(=O)N(C5CCC(=O)NC5=O)C6=O)C4C2)C3)cc(OC)c1CN(C)C (stereo not shown) [Compound D188]
100 to 1000 nM | COc1cc(-c2cn(C)c(=O)c3c2CCN(C(=O)NCCN2CCC4(C2)CN(c2ccc5c(c2)C(=O)N(C2CCC(=O)NC2=O)C5=O)C4)C3)cc(OC)c1CN(C)C (stereo not shown) [Compound D189]
100 to 1000 nM | COc1cc(-c2cn(C)c(=O)c3c2CCN(C(=O)NCCN2CCC4(CCN(c5ccc6c(c5)C(=O)N(C5CCC(=O)NC5=O)C6=O)C4)C2)C3)cc(OC)c1CN(C)C (stereo not shown) [Compound D190]
100 to 1000 nM | COc1cc(-c2cn(C)c(=O)c3c2CCN(C(=O)NCCN2CC4(CCN(c5ccc6c(c5)C(=O)N(C5CCC(=O)NC5=O)C6=O)CC4)C2)C3)cc(OC)c1CN(C)C (stereo not shown) [Compound D191]
100 to 1000 nM | COc1cc(-c2cn(C)c(=O)c3c2CCN(C(=O)NCCN2CC4(CCN4c4ccc5c(c4)C(=O)N(C4CCC(=O)NC4=O)C5=O)C2)C3)cc(OC)c1CN(C)C (stereo not shown) [Compound D192]
≥ 1000 nM | COc1cc(-c2cn(C)c(=O)c3c2CCN(C(=O)NCC2CC4(CCN(CCCCN5CCN(c6ccc7c(c6)C(=O)N(C6CCC(=O)NC6=O)C7=O)CC5)CC4)O2)C3)cc(OC)c1CN(C)C (stereo not shown) [Compound D193]
100 to 1000 nM | COc1cc(-c2cn(C)c(=O)c3c2CCN(C(=O)NCC2CC4(C2)CN(CCCOc2ccc5c(c2)C(=O)N(C2CCC(=O)NC2=O)C5=O)C4)C3)cc(OC)c1CN(C)C (stereo not shown) [Compound D194]
< 10 nM | CNC(=O)N1CCc2c(-c3cc(OC)c(CN4CCC(CN(C)C5CCN(c6ccc7c(c6)C(=O)N(C6CCC(=O)NC6=O)C7=O)CC5)CC4)c(OC)c3)cn(C)c(=O)c2C1 (stereo not shown) [Compound D195]
< 10 nM | CNC(=O)N1CCc2c(-c3cc(OC)c(CN4CCC(CCN5CC6CN(c7ccc8c(c7)C(=O)N(C7CCC(=O)NC7=O)C8=O)CC6C5)CC4)c(OC)c3)cn(C)c(=O)c2C1 (stereo not shown) [Compound D196]
< 10 nM | CNC(=O)N1CCc2c(-c3cc(OC)c(CN4CCC(CCN(C)C5CCN(c6ccc7c(c6)C(=O)N(C6CCC(=O)NC6=O)C7=O)C5)CC4)c(OC)c3)cn(C)c(=O)c2C1 (stereo not shown) [Compound D197]
< 10 nM | CNC(=O)N1CCc2c(-c3cc(OC)c(CN4CCC(CCN5CCCN(c6ccc7c(c6)C(=O)N(C6CCC(=O)NC6=O)C7=O)CC5)CC4)c(OC)c3)cn(C)c(=O)c2C1 (stereo not shown) [Compound D198]
< 10 nM | CNC(=O)N1CCc2c(-c3cc(OC)c(CN4CCC(CCN5CC6(C5)CN(c5ccc7c(c5)C(=O)N(C5CCC(=O)NC5=O)C7=O)C6)CC4)c(OC)c3)cn(C)c(=O)c2C1 (stereo not shown) [Compound D199]
< 10 nM | CNC(=O)N1CCc2c(-c3cc(OC)c(CN4CCC(CCN(C)C5CCN(c6ccc7c(c6)C(=O)N(C6CCC(=O)NC6=O)C7=O)CC5)CC4)c(OC)c3)cn(C)c(=O)c2C1 (stereo not shown) [Compound D200]
< 10 nM | CNC(=O)N1CCc2c(-c3cc(OC)c(CN4CCC(N5CCN(c6ccc7c(c6)C(=O)N(C6CCC(=O)NC6=O)C7=O)CC5)CC4)c(OC)c3)cn(C)c(=O)c2C1 (stereo not shown) [Compound D201]
10 to 100 nM | CNC(=O)N1CCc2c(-c3cc(OC)c(CN4CCC5(CC4)CN(CCN4CCN(c6ccc7c(c6)C(=O)N(C6CCC(=O)NC6=O)C7=O)CC4)CCO5)c(OC)c3)cn(C)c(=O)c2C1 (stereo not shown) [Compound D202]
10 to 100 nM | CNC(=O)N1CCc2c(-c3cc(OC)c(CN4CCC5(CC4)CN(C(=O)CCCOc4ccc6c(c4)C(=O)N(C4CCC(=O)NC4=O)C6=O)CCO5)c(OC)c3)cn(C)c(=O)c2C1 (stereo not shown) [Compound D203]
100 to 1000 nM | COc1cc(-c2cn(C)c(=O)c3c2CCN(C(=O)NCCN2CCC(OC4CCN(c5ccc6c(c5)C(=O)N(C5CCC(=O)NC5=O)C6=O)CC4)C2)C3)cc(OC)c1CN(C)C (stereo not shown) [Compound D204]
10 to 100 nM | COc1cc(-c2cn(C)c(=O)c3c2CCN(C(=O)NCCN2CCC(C4CCN(c5ccc6c(c5)C(=O)N(C5CCC(=O)NC5=O)C6=O)CC4)C2)C3)cc(OC)c1CN(C)C (stereo not shown) [Compound D205]
100 to 1000 nM | COc1cc(-c2cn(C)c(=O)c3c2CCN(C(=O)NCCN2CCC(OCC4CCN(c5ccc6c(c5)C(=O)N(C5CCC(=O)NC5=O)C6=O)CC4)C2)C3)cc(OC)c1CN(C)C (stereo not shown) [Compound D206]
10 to 100 nM | COc1cc(-c2cn(C)c(=O)c3c2CCN(C(=O)NCCCN2CCC4(C2)CN(c2ccc5c(c2)C(=O)N(C2CCC(=O)NC2=O)C5=O)C4)C3)cc(OC)c1CN(C)C (stereo not shown) [Compound D207]
10 to 100 nM | COc1cc(-c2cn(C)c(=O)c3c2CCN(C(=O)NCCCN2CCC4(CCN(c5ccc6c(c5)C(=O)N(C5CCC(=O)NC5=O)C6=O)C4)C2)C3)cc(OC)c1CN(C)C (stereo not shown) [Compound D208]

IC50 | SMILES
10 to 100 nM | COc1cc(-c2cn(C)c(=O)c3c2CCN(C(=O)NCCN2CCC4(CC2)CCN(c2ccc5c(c2)C(=O)N(C2CCC(=O)NC2=O)C5=O)C4)C3)cc(OC)c1CN(C)C (stereo not shown) [Compound D209]
10 to 100 nM | COc1cc(-c2cn(C)c(=O)c3c2CCN(C(=O)NCCCN2CC4(CCN(c5ccc6c(c5)C(=O)N(C5CCC(=O)NC5=O)C6=O)C4)C2)C3)cc(OC)c1CN(C)C (stereo not shown) [Compound D210]
100 to 1000 nM | COc1cc(-c2cn(C)c(=O)c3c2CCN(C(=O)NCCN2CC4(CCN(c5ccc6c(c5)C(=O)N(C5CCC(=O)NC5=O)C6=O)C4)C2)C3)cc(OC)c1CN(C)C (stereo not shown) [Compound D211]
10 to 100 nM | COc1cc(-c2cn(C)c(=O)c3c2CCN(C(=O)NCCN2CCC4(CC2)CN(c2ccc5c(c2)C(=O)N(C2CCC(=O)NC2=O)C5=O)C4)C3)cc(OC)c1CN(C)C (stereo not shown) [Compound D212]
100 to 1000 nM | COc1cc(-c2cn(C)c(=O)c3c2CCN(C(=O)NCC2CC4(CCN(CCOc5ccc6c(c5)C(=O)N(C5CCC(=O)NC5=O)C6=O)CC4)O2)C3)cc(OC)c1CN(C)C (stereo not shown) [Compound D213]
100 to 1000 nM | COc1cc(-c2cn(C)c(=O)c3c2CCN(C(=O)NC2CCC4(CCN(CCCN5CCN(c6ccc7c(c6)C(=O)N(C6CCC(=O)NC6=O)C7=O)CC5)C4)C2)C3)cc(OC)c1CN(C)C (stereo not shown) [Compound D214]
100 to 1000 nM | COc1cc(-c2cn(C)c(=O)c3c2CCN(C(=O)NC2CCC4(CCN(CCOc5ccc6c(c5)C(=O)N(C5CCC(=O)NC5=O)C6=O)C4)C2)C3)cc(OC)c1CN(C)C (stereo not shown) [Compound D215]
≥ 1000 nM | COc1cc(-c2cn(C)c(=O)c3c2CCN(C(=O)NC2CC4(CCN(CCCN5CCN(c6ccc7c(c6)C(=O)N(C6CCC(=O)NC6=O)C7=O)CC5)CC4)C2)C3)cc(OC)c1CN(C)C (stereo not shown) [Compound D216]
≥ 1000 nM | COc1cc(-c2cn(C)c(=O)c3c2CCN(C(=O)NC2CC4(CCN(CCCCN5CCN(c6ccc7c(c6)C(=O)N(C6CCC(=O)NC6=O)C7=O)CC5)CC4)CO2)C3)cc(OC)c1CN(C)C (stereo not shown) [Compound D217]
10 to 100 nM | COc1cc(-c2cn(C)c(=O)c3c2CCN(C(=O)NCC2CC4(CCN(CCCCN5CCN(c6ccc7c(c6)C(=O)N(C6CCC(=O)NC6=O)C7=O)CC5)CC4)C2)C3)cc(OC)c1CN(C)C (stereo not shown) [Compound D218]
100 to 1000 nM | COc1cc(-c2cn(C)c(=O)c3c2CCN(C(=O)NCC2CC4(C2)CN(CCCCN2CCN(c5ccc6c(c5)C(=O)N(C5CCC(=O)NC5=O)C6=O)CC2)C4)C3)cc(OC)c1CN(C)C (stereo not shown) [Compound D219]
100 to 1000 nM | COc1cc(-c2cn(C)c(=O)c3c2CCN(C(=O)CC2CCC24CCN(CCCCN2CCN(c5ccc6c(c5)C(=O)N(C5CCC(=O)NC5=O)C6=O)CC2)CC4)C3)cc(OC)c1CN(C)C (stereo not shown) [Compound D220]
100 to 1000 nM | COc1cc(-c2cn(C)c(=O)c3c2CCN(C(=O)NC2CCC4CN(CCCCN5CCN(c6ccc7c(c6)C(=O)N(C6CCC(=O)NC6=O)C7=O)CC5)CC42)C3)cc(OC)c1CN(C)C (stereo not shown) [Compound D221]
< 10 nM | CNC(=O)N1CCc2c(-c3cc(OC)c(CN4CCC5(CC4)CN(CCCCOc4ccc6c(c4)C(=O)N(C4CCC(=O)NC4=O)C6=O)CCO5)c(OC)c3)cn(C)c(=O)c2C1 (stereo not shown) [Compound D222]
10 to 100 nM | COc1cc(-c2cn(C)c(=O)c3c2CCN(C(=O)NCCCN2CCC(OC4CCN(c5ccc6c(c5)C(=O)N(C5CCC(=O)NC5=O)C6=O)CC4)CC2)C3)cc(OC)c1CN(C)C (stereo not shown) [Compound D223]
< 10 nM | COc1cc(-c2cn(C)c(=O)c3c2CCN(C(=O)NC2CC4(CCN(CCOc5ccc6c(c5)C(=O)N(C5CCC(=O)NC5=O)C6=O)CC4)C2)C3)cc(OC)c1CN(C)C (stereo not shown) [Compound D224]
10 to 100 nM | COc1cc(-c2cn(C)c(=O)c3c2CCN(C(=O)NCCCN2CCC(OC4CCN(c5ccc6c(c5)C(=O)N(C5CCC(=O)NC5=O)C6=O)CC4)C2)C3)cc(OC)c1CN(C)C (stereo not shown) [Compound D225]
10 to 100 nM | COc1cc(-c2cn(C)c(=O)c3c2CCN(C(=O)NC2CC4(CCN(CCCCN5CCN(c6ccc7c(c6)C(=O)N(C6CCC(=O)NC6=O)C7=O)CC5)C4)C2)C3)cc(OC)c1CN(C)C (stereo not shown) [Compound D226]
< 10 nM | COc1cc(-c2cn(C)c(=O)c3c2CCN(C(=O)NCCCN2CCC(N4CCN(c5ccc6c(c5)C(=O)N(C5CCC(=O)NC5=O)C6=O)CC4)C2)C3)cc(OC)c1CN(C)C (stereo not shown) [Compound D227]
10 to 100 nM | COc1cc(-c2cn(C)c(=O)c3c2CCN(C(=O)NC2CC4(CCN(CCOc5ccc6c(c5)C(=O)N(C5CCC(=O)NC5=O)C6=O)C4)C2)C3)cc(OC)c1CN(C)C (stereo not shown) [Compound D228]
10 to 100 nM | COc1cc(-c2cn(C)c(=O)c3c2CCN(C(=O)NCCCN2CCC(OCC4CCN(c5ccc6c(c5)C(=O)N(C5CCC(=O)NC5=O)C6=O)CC4)C2)C3)cc(OC)c1CN(C)C (stereo not shown) [Compound D229]
≥ 1000 nM | COc1cc(-c2cn(C)c(=O)c3c2CCN(C(=O)NC2CC4(C2)CN(CCCCN2CCN(c5ccc6c(c5)C(=O)N(C5CCC(=O)NC5=O)C6=O)CC2)C4)C3)cc(OC)c1CN(C)C (stereo not shown) [Compound D230]
< 10 nM | COc1cc(-c2cn(C)c(=O)c3c2CCN(C(=O)NCCCN2CCC4C(C2)CN4c2ccc4c(c2)C(=O)N(C2CCC(=O)NC2=O)C4=O)C3)cc(OC)c1CN(C)C (stereo not shown) [Compound D231]
